From patent publication US20220338759A1, “DEVICE FOR CALCULATING, DURING ONE STEP OR EACH SUCCESSIVE STEP OF THE GAIT OF A SUBJECT, THE PUSH-OFF P0 OF THE SUBJECT” (Centre National De La Recherche Scientifique, priority 2019, published 2022)
Where “and” joins values, the source holds several entries; their conditions need not be identical. Identical values can stand only once.

Experiments:
[1] = test system: patients with progressive MS (pMS); test: Prospective observational 12-month study of pMS patients with newly introduced MD1003 (pMS-b cohort): T25FW, Po and falls at M0 and M6; assay type: in vivo, human; settings: for mean change in Po / mean change in TW25F: M6 vs M0
Procedure: We perform a prospective observational study to evaluate a measure of a surrogate of ankle push-off moment power (Po) as a biomarker of evolution in pMS patients with stable treatment and pMS patients with newly introduced MD1003 (high-dose biotin). Po is measured during a 10m-walk with U-turn and back, using an IMU attached to each foot. The objective is to assess whether the dynamic measure of Po at 6-month interval reflects the response to treatment (assessed using the change in the timed 25-foot walk or the Expanded Disease Status Scale) and the change in fall risk within 6 months.
Second, the inventors aim at measuring how this variation in Po impact evolution of fall risk in this group of pMS patients. […] The T25FW, Po and risk of falls was assessed every 6 months using a simple validated protocol and the evolution of Po and the risk of falls were compared for each individual according to their response to treatment.
Patients—Thirty-three patients with progressive MS (pMS) and 20 gender and age-matched healthy subjects (HS) were enrolled in this longitudinal prospective study (table 1). pMS were recruited consecutively from the outpatient clinic of Percy Hospital (Clamart, France) between December 2017 and April 2018. The inclusion criteria for participation in the pMS cohorts required participants to be at least 18 years old, be diagnosed with primary progressive or secondary progressive multiple sclerosis according to the 2010 International Panel criteria, be capable of walking 20 m with U-turn, be free of any other conditions that affect gait. The exclusion criteria was pregnancy and high-dose biotin intake before M0. From the pMS cohort, the inventors isolated a subgroup, named pMS-b cohort, built with patients who were treated with high-dose biotin (MD1003 100 mg, three times a day) for at least one year after inclusion. For participating in the pMS-b cohort, additional inclusion criteria were those of the cohort Temporary Use Authorisation (TUAc) of MD1003—they had to have been free of any relapse for at least one year and sign the consent to enter the TUA cohort. The other patients were included in a group named pMS-nb. Exclusion criteria from this pMS-nb cohort were the presence of drug intake modification for the six-months prior to inclusions or during the twelve-month follow-up. HS participants were recruited from the hospital and research unit staff between December 2017 and April 2018. The inclusion criteria for participation in the HS cohort included: no report of falls in the past 5 years before inclusion, no disease that could affect their walk. Seventeen patients were included in the pMS-b cohort and 16 in the pMS-nb cohort. All participants gave their written consent to participate in the study. The study protocol was conducted according to the Helsinki principles and approved by Ethic Comity “Protection des Personnes Nord Ouest III” under the ID RCB: 2017-A01538-45.
Measures—Gait was measured using four 3-dimensional accelerometers (Mtw XSens®, 100 Hz sampling frequency) positioned on the head, lower back (L4-L5 vertebrae) and dorsal part of both feet. Participants performed two walks of 20 m with U-turn (10 m way in and 10 m way out). One trial per visit only was used in this study, as the second trial was done with specific conditions for the sake of a reproducibility test in a previous study. A limit at 7.62 m was drawn for the assessor to timeclock the T25FW during the first way-in. Disease severity was assessed using patient-reported outcomes (the Multiple Sclerosis Walking Scale-12—MSWS—and the Fatigue Impact Scale—FIS) together with clinical evaluation (Expanded Disease Severity Scale [10]-EDSS—and Computerized Speed Cognitive Test [11]—CSCT) and the 25-foot walking test administered according to a validated standardized protocol. […]

[2] = test system: progressive multiple sclerosis; settings: cited from earlier work
[3] = pMS-b (n = 17), T25FW at M6 vs M0

O=C(O)CCCC[C@@H]1SC[C@@H]2NC(=O)N[C@@H]21 [MD1003, biotin]
response to treatment as defined by a 20% decrease in TW25F ([1]; our cohort (pMS-b)): 13% | complete responder (≥20% decrease), number of patients ([1]; pMS-b (n = 17), MD1003 100 mg three times a day, T25FW at M6 vs M0): 3/17 and 3 | complete progressor (≥20% increase), number of patients [1, 3]: 5 | complete progressor (≥20% increase), percent of patients [1, 3]: (29%) | non responder (−10-10% decrease), number of patients [1, 3]: 5 | non responder (−10-10% decrease), percent of patients [1, 3]: (29%) | partial progressor (10-20% increase), number of patients [1, 3]: 2 | partial progressor (10-20% increase), percent of patients [1, 3]: (12%) | partial responder (10-20% decrease), number of patients [1, 3]: 2 | partial responder (10-20% decrease), percent of patients [1, 3]: (12%) | participants who decreased their number of falls among the three with Po decreased by more than 20% ([1]; pMS-b cohort): Two | significant change of Po after beginning of MD1003 ([1]; pMS-b cohort): nearly half the cohort | responders (response to treatment by change in timed 25-foot walk or EDSS) ([1]; pMS-b cohort, summary of results, M0 to M6): 2/17 | participants who decreased their Po by more than 20% ([1]; pMS-b cohort, M0 to M6): Three | mean change in Po ([1]; pMS-b complete progressors): −0.36 | mean change in TW25F ([1]; pMS-b complete progressors): 1.39 | mean change in Po ([1]; pMS-b complete responders): 0.33 | mean change in TW25F ([1]; pMS-b complete responders): −0.26 | number of falls in the following 6 months in the 4 patients with significant increase (higher than 20%) in Po ([1]; pMS-b group): equal or lower number of falls | patients showing an increase in Po of more than 20% ([1]; pMS-b group, 17 patients, M0 to M6): 4 | patients who increased their Po ([1]; pMS-b group, out of the 17 patients, M0 to M6): 8 | patients who did not fall during the first 6-month period and began falling during the second 6-month period ([1]; pMS-b group, M0-M6 vs M6-M12): 3 | patients who fell during the first 6-month period and stopped falling during the second 6-month period ([1]; pMS-b group, M0-M6 vs M6-M12): 1 | mean change in Po ([1]; pMS-b non responders): −0.02 | mean change in TW25F ([1]; pMS-b non responders): 0.00 | mean change in Po ([1]; pMS-b partial progressors): 0.05 | mean change in TW25F ([1]; pMS-b partial progressors): 0.17 | mean change in Po ([1]; pMS-b partial responders): 0.14 | mean change in TW25F ([1]; pMS-b partial responders): −0.17 | effect on locomotion ([1]; small sample of pMS patients): improved the locomotion in a subset pMS patients | response to treatment as defined by a 20% decrease in TW25F ([2]; cohort of the phase 3 clinical trial [14]): 8.7% | patients in whom the T25FW time decreased by 20% ([2]; recently demonstrated efficacy of MD1003): 10%
